Laboratory results taken from patent US20230013402A1, “REGENERATING FUNCTIONS AND PHENOTYPES OF CONNECTIVE TISSUE THROUGH NPAS2 SUPPRESSION” (The Regents of the University of California, priority 2019, published 2023).
“Also recorded” adds a separate entry of the source.

How the values were obtained:
[1] = tested on: ligature-induced periodontitis; assay: Modified mouse ligature-induced periodontitis model (ligature removed at Day 14, evaluation at D28); type: in vivo; settings: topical to palatal gingiva once a week, listed as Dwn1
From the text: FIGS. 12A-12H show the effect of Dwn1 in the modified ligature-induced periodontitis in mice.
The selected highest hit compound Dwn1 (Reserpine) of Example 2 was applied to the well established ligature-induced periodontitis model with modification. After periodontitis was established at Day 14, the ligature was revoved from mouse molar mimicking non-invasive periodontits treatment: scaling and root planing (SRP) (FIGS. 12A-12D). Dwn1 was formulated in ABR LLC's propritery trans-epithelial deformable nano-scale vesicle (DNV) (57) and topically adminstered to the palatal gingival tissue once a week (FIG. 12E). […] The in vivo regenerative efficacy of Dwn1 (Reserpine) was strongly indicated.
From FDA Approved Drug Library (1120 compounds) and LOPAC Library (1280 compounds), a list of chemical compounds that modulated Npas2-LacZ expression was identified. […] Dwn1 was formulated for topical application to palatal gingiva. After 14 days of periodontitis induction, the ligature was removed and Dwn1 was topically applied to the palatal gingiva once a week (FIG. 16A).

[2] = tested on: Npas2-LacZ reporter gene (Npas2 expression); assay: High throughput screening of FDA Approved Drug Library for Npas2-LacZ reporter expression; type: cell-based, mouse; settings: Table 1
From the text: (§1) Mouse MSC carrying Npas2-LacZ reporter gene, as described by Hassan N, et al., PLoS One. 2017; 12(8):e0183359, which is incorporated by reference herein in its entirety, was immortalized using SV40 in order to accommodate a large-scale HTS. […] This cell system was used to screen FDA Approved Drug Library (1120 compounds). The same library was also screened for cell viability by Calcein AM Hoechst 33342 staining Cell migration assays using the Oris™ Pro Cell Migration Assay plate, as described by Joy M E et al., PloS one. 2014; 9(2):e88350, which is incorporated by reference herein in its entirety, was used for a high-throughput migration assay using human skin fibroblasts
(§2) The combined Z score was used to identify hit compounds (Table 1).

human skin fibroblasts = assay: High-throughput cell migration assay (Oris Pro Cell Migration Assay plate) / standardized viability; type: cell-based; settings: Table 1; HTS of FDA Drug Library
From the text: as §1, §2

COC(=O)[C@H]1[C@H]2C[C@@H]3c4[nH]c5cc(OC)ccc5c4CCN3C[C@H]2C[C@@H](OC(=O)c2cc(OC)c(OC)c(OC)c2)[C@@H]1OC [Reserpine]
Gingival epithelium / gingival defect [1]: normalized gingival epithelium; also recorded: less visible
Alveolar bone regeneration (microCT bone height) ([1]; palatal side): increased bone height; also recorded: Alveolar bone regeneration was demonstrated; also recorded: alveolar bone loss was attenuated; also recorded: significant alveolar bone regeneration
Gingival/periodontal collagen with Sharpey's fibers ([1]; picrosirius red): gingival/PDL connective tissue reconstruction; also recorded: appeared to be reconstructed; also recorded: normalized Sirius red stained gingival collagen arrangement; also recorded: collagen fibers were reorganized
NPAS2 Z Score ([2]; HTS of FDA Drug Library): −2.57
NPAS Z × ViabilityZ ([2]; combined Z score (product)): −10.77
Migration (standardized viability) Z Score (human skin fibroblasts): 4.19
